Experimental findings from patent US20250019335A1, “NOVEL QUINIZARIN DERIVATIVE AND PREPARATION METHOD THEREOF” (BENOBIO CO., LTD., priority 2021, published 2025) are described below.

Assay [1] has as its target T1, BRD2(BD2) (Homo sapiens, UniProt P25440).
T1 construct: a mixture of 100 nM GST BRD2 (BD1, BD2, BD1+BD2) and 100 nM biotinylated acetyl histone H4
The assay can be described thus: Binding inhibition ability test for BRD2 protein (AlphaScreen, GST BRD2 / biotinylated acetyl histone H4 peptide). As to conditions: 100 nM GST BRD2, 100 nM biotinylated acetyl histone H4 (Lys5, 8, 12, 16) peptide, Alpha Screen. The protocol:
To confirm a binding inhibitory effect of a quinizarin derivative of the present disclosure on a BRD2 protein among BET proteins, the following experiment was performed.
First, a compound was diluted in 1:5 subdilution in an assay buffer from a 10 mM stock in dimethyl sulfoxide (DMSO) in a white Optiplate.
Then, a mixture of 100 nM GST BRD2 (BD1, BD2, BD1+BD2) and 100 nM biotinylated acetyl histone H4 (Lys5, 8, 12, 16) peptides was added to the diluent, and then each sample was shaking-cultured in the dark at 300 rpm for 30 minutes at room temperature.
Thereafter, signals were measured with a PerkinElmer Envision HTS Multilabel Reader using a PerkinElmer Alpha Screen protocol.

For assay [2], the system named is HepG2 cells. The assay can be described thus: Lipogenesis inhibition in palmitic acid-induced fatty liver HepG2 cells (Oil red O staining). It counts as cell-based, human. Particulars: pretreated 1 μM to 10 μM, 100 μM palmitic acid 24 hours. The protocol: HepG2 cell lines, human liver epithelial cells, were incubated, pretreated with quinizarin and a substance of Example 2 (BBC0504) at concentrations of 1 μM to 10 μM, and treated with 100 μM palmitic acid (PA) for 24 hours to induce fatty liver at a cellular level. After 24 hours, the cells in each sample were immobilized for 1 hour with a phosphate-buffered salt solution containing 7% formaldehyde, washed with PBS, and stained with a 99% isopropanol solution containing 1% Oil red O for 10 minutes. The differentiation degree of adipocytes was measured by dissolving the stained Oil red O in isopropanol and measuring the absorbance at 510 nm.
Referring to FIG. 11, HepG2 cells, which are human liver epithelial cells, were treated with palmitic acid to induce fatty liver, and the ability to inhibit lipogenesis was confirmed at each concentration in Example 2.

Assay [3] concerns SREBP-1. The assay can be described thus: Expression of liposynthesis factor SREBP-1 in palmitic acid-treated HepG2 cells (RT-PCR). As to conditions: pretreated 1 μM to 10 μM, 100 μM palmitic acid 24 hours. It counts as cell-based, human. On the procedure:
(§1) HepG2 cell lines, human liver epithelial cells, were incubated, pretreated with quinizarin and a substance of Example 2 (BBC0504) at concentrations of 1 μM to 10 μM, and treated with 100 μM palmitic acid (PA) for 24 hours to induce fatty liver at a cellular level. After 24 hours, the expression of lipogenesis-related genes SREBP-1 and FAS in cells in each sample was confirmed using RT-PCR. Each sample was added with a trizol reagent to extract total RNA, and the concentration was confirmed using a spectrophotometer. To synthesize cDNA for each gene, RT-PCR reaction was performed using primers targeting the SREBP-1 and FAS genes. β-actin was used as a control group, and after the reaction was completed, the detected cDNA product was confirmed by electrophoresis on a 1.0% agarose gel.
FIG. 13 illustrates a result of confirming SREBP-1 expression after treating fatty liver-induced cells for each concentration with a quinizarin derivative according to an embodiment of the present disclosure.

Assay [4] deals with FAS. Put plainly: Expression of liposynthesis factor FAS in palmitic acid-treated HepG2 cells (RT-PCR). As to conditions: pretreated 1 μM to 10 μM, 100 μM palmitic acid 24 hours. It counts as cell-based, human. On the procedure: as §1
FIG. 14 illustrates a result of confirming FAS expression after treating fatty liver-induced cells with a quinizarin derivative at each concentration according to an embodiment of the present disclosure.

T1 sequence (P25440 344-453 limits assumed, species assumed): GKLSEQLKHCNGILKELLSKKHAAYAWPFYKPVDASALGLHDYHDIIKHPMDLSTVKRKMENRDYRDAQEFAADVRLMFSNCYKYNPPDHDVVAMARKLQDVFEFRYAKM

In turn, `O=C1c2ccccc2C(=O)c2c(O)c(-c3ccc(O)c(O)c3)cc(O)c21` [Example 1] came in with a half-inhibitory concentration (IC50) in assay [1] of 1740 nM.

As for `O=C1c2ccc(-c3ccc(O)c(O)c3)cc2C(=O)c2c(O)ccc(O)c21` [Example 2], in assay [1], the half-maximal inhibitory concentration (IC50) turned out to be 4440 nM. For the same compound, in assay [2], the “lipogenesis amount (Oil red O absorbance at 510 nm)” value was “reduced in a concentration-dependent manner”. Further, in assay [3], the SREBP-1 gene expression result is listed as “reduced depending on a concentration”. Moreover, the FAS gene expression result in assay [4] is “reduced depending on a concentration”.

The compound `O=C1c2ccccc2C(=O)c2c(O)cc(-c3ccc(O)c(O)c3)cc21` [Example 3] displayed an IC50 in assay [1] of 1750 nM. This counts as single-digit micromolar.

In the case of `O=C1c2ccccc2C(=O)c2c(OC3COC3)ccc(O)c21` [Example 4], the IC50 in assay [1] worked out at 3120 nM.

Compound `O=C1c2ccccc2C(=O)c2c3c(cc(O)c21)OCCO3` [Example 5] gave an IC50 in assay [1] of 2730 nM.

In general, IC50 refers to the midpoint of a concentration-inhibition curve. Read a high IC50 as lower potency.
